Test system: Jurkat cells
Assay: Growth-inhibiting activity on human leukemia T cell line Jurkat cells (viable cell counting reagent SF, 72 h)
Assay type: cell-based
Details: 72 h incubation, cell viability by absorbance A450-A630
Description: The cancer cell growth-inhibiting activity of each of the above samples was evaluated using the human leukemia T cell line, Jurkat.
A suspension of Jurkat cells was prepared at 2×10^5 cells/mL, and 50 μL of the suspension was seeded into each well of a 96-well plate. The evaluation sample was dissolved in DMSO and subsequently diluted 500 fold with culture medium. Immediately after dilution, 50 μL of the resulting solution was added to each well to initiate treatment. After incubation for 72 h, 10 μL of the viable cell counting reagent SF was added to each well. Following incubation for 2 to 3 hours to allow color development, absorbance at 450 nm and 630 nm was measured using a microplate reader. Cell viability was then calculated using the following formula (F1).
As, Ab, and Ac are defined as follows. • As: absorbance of evaluation well • Ab: absorbance of negative control well • Ac: absorbance of control well
The respective “absorbances” in the above formula were calculated by subtracting the absorbance at 630 nm (A630) from the absorbance at 450 nm (A450) and was represented by “A450-A630”. Furthermore, to calculate IC50, a linear approximation was performed on a graph showing the logarithmic values of the two concentrations that most narrowly bracketed a cell viability of 50%.

IC50: > 100 µM
IC50 (Homo sapiens, Jurkat, 72 h): ≥ 100 µM
Structure (SMILES): CSC/C=C(\C)CCC[C@H](C)CCC[C@H](C)CCCC(C)C [PT37]
